Data from US7150974B1, “Parathyroid hormone receptor binding method” (The General Hospital Corporation, priority 1991, dated 2006).

Columns and labels:
[1] = target: T1, rat bone PTH/PTHrP receptor (Rattus norvegicus, UniProt P25961, E586G); assay: Radioreceptor assay, COS cells expressing rat bone PTH/PTHrP receptor (R15B); assay type: binding
T1 construct: expressed in transfected cells; host or cells: COS / COS-7 cells, transient, plasmid R15B (pcDNA I)
T1 sequence (P25961 27-591 E586G): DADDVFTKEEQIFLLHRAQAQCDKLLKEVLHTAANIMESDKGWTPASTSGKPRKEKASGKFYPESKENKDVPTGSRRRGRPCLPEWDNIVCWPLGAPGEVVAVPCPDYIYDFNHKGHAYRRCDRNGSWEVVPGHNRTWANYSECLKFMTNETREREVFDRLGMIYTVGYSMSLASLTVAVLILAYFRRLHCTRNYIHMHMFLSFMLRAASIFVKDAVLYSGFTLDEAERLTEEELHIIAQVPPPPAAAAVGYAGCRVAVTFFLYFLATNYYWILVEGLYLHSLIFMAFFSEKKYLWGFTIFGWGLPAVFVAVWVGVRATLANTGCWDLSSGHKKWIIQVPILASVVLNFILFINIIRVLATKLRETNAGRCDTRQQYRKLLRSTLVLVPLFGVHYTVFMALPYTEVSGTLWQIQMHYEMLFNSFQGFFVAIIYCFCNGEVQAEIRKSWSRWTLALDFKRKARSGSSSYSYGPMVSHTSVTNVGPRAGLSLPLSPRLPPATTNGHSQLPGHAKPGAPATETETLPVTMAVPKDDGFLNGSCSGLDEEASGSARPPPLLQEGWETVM
Procedure: In brief, the labeled peptide was dissolved in 0.1% trifluoracetic acid (TFA), applied to a C18 Sep-pak cartridge (Waters Associates, Inc., Milford, Mass.) and eluted with a solution of 60% acetonitrile in 0.1% TFA. After lyophilization, the radioligand then was applied to C18-μBondapak column (3.9 mm×30 cm. Waters Associates) and eluted over 30 min with a linear gradient of 30-50% acetonitrile-0.1% TFA at a flow rate of 2 ml/min.
COS-7 cells were grown in 15 cm plates in DMEM, 10% heat-inactivated […], 10 mg/L gentamycin until 80-90% confluent. Twenty-four hours after transfection by the DEAE/Dextran method (Sambrook et al., supra), with 1-2 μg of plasmid DNA, the cells were trypsinized and replated in multiwell plastic dishes (16 or 35 mm diameter, Costar, Cambridge, Mass.) at a cell concentration of 5×10^4 cells/cm^2). […] After continuing culture for another 48 h, radiorecepter assays were performed. The culture medium was replaced with buffer containing 50 mM Tris-HCL (pH 7.7), 100 mM NaCl, 2 mM CaCl2, 5 mM KCL, 0.5% heat-inactivated fetal bovine serum (GIBCO), and 5% heat-inactivated horse serum (KC Biological Inc., Lenexa, Kans.) immediately before studies were initiated.
Incubations were terminated by aspirating the buffer, and repeatedly (×3) washing the culture dishes, containing the adherent cells with chilled 0.9% NaCl solution, over a 15 sec period. Cell-bound radioactivity was recovered by the sequential addition (×3) of 1 N NaOH (200 μl) to each well. After 30 min at room temperature, the NaOH was transferred to a glass tube. A second and third extraction with 1 N NaOH (200 μl) were combined with the first, and the total radioactivity was counted in a γ-spectrometer (Packard Instruments, Downers Grove, Ill.).

[2] = target: T2, opossum kidney PTH/PTHrP receptor clone, OK-H (Didelphis virginiana, UniProt P25107, I132F/S86P); assay: cAMP accumulation, COS cells expressing OK-H; assay type: cell-based; conditions: FIG. 16
T2 construct: expressed in transfected cells; host or cells: COS cells, transient, plasmid OK-H (pcDNA I)
Procedure: Intracellular cAMP accumulation was measured as described previously (Abou-Samra et al., J. Biol. Chem. 262:1129, 1986). Cells in 24-well plates were rinsed with culture medium containing 0.1% BSA and 2 mM IBMX. The cells were then incubated with PTH or PTHrP for 15 min. at 37° C. The supernatant was removed and the cells immediately frozen by placing the whole plate in dry ice powder. Intracellular cAMP was extracted by thawing the cells in 1 ml of 50 mM HCl and analyzed by a specific radioimmunoassay using an anti-cAMP antibody (e.g., Sigma, St. Louis, Mo.). A cAMP analog (2′-O-monosuccinyl-adenosine 3′:5′-cyclic monophosphate tyrosyl methyl ester, obtained from Sigma) which was used a tracer for cAMP was iodinated by the chloramine T method. Free iodine was removed by adsorbing the iodinated cAMP analog onto a C18 Sep-pak cartridge (Waters, Milford, Mass.). After washing with dH2O, the iodinated cAMP analog was eluted from the Sep-pak Cartridge with 40% acetonitrille (ACN) and 0.1% trifluoroacetic acid (TFA). The iodinated cAMP analog was lyophilized, reconstituted in 1 ml 0.1% TFA, and injected into a C18 reverse phase HPLC column (Waters). […] The supernatant was removed and the bound radioactivity was counted in a γ-counter (Micromedic). Standard curves were calculated using the four-parameter RIA program supplied by Micromedic. […]

T2 sequence (P25107 other isoform, or with tags, fused parts or gaps S86P/I132F): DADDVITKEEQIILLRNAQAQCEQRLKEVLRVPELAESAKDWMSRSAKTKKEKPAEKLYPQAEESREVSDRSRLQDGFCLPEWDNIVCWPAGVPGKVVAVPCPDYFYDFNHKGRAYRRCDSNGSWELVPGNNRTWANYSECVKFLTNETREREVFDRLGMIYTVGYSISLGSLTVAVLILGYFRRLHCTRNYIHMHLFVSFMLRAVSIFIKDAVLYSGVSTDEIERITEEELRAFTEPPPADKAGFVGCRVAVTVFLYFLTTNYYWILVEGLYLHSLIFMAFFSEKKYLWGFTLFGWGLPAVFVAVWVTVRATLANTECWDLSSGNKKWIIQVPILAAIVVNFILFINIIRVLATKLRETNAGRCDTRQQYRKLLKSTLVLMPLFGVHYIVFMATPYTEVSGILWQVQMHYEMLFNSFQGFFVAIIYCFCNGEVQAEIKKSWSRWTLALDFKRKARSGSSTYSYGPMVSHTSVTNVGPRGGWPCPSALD

## [Nle^8,18, Tyr^34]bPTH(1-34)amide
[1]; COS cells expressing R15B, FIG. 13
  inhibition of 125I-PTHrP binding by competitor: inhibited
[1]; radiolabelled ligand ~200,000 cpm, COS-7 cells expressing R15B
  specific binding of radiolabelled ligand: 8.1 ± 3.5%
[2]
  cAMP accumulation: increase cAMP accumulation
